Reference: paper PMC5071672 (2016)

Columns and labels:
[1] = test system: duplex-[(dAdT)12·(dAdT)12] (DNA, duplex) ATATATATATATATATATATATAT; test: ITC; details: 100 mM KCl; 25 mM MOPS, 1 mM EDTA, pH 7.1, 25 °C; too weak to be analysed
[2] = test system: duplex-[(dGdC)12·(dGdC)12] (DNA, duplex) GCGCGCGCGCGCGCGCGCGCGCGC; test: ITC; details: 100 mM KCl; 25 mM MOPS, 1 mM EDTA, pH 7.1, 25 °C; site 1 of 2; ill-defined, SI favours higher value
[3] = test system: 22AG (DNA, G4) AGGGTTAGGGTTAGGGTTAGGG; test: ITC; details: 100 mM KCl; 25 mM MOPS, 1 mM EDTA, pH 7.1, 25 °C; site 1 of 2
[4] = test system: c-myc (DNA, G4) TGAGGGTGGGTAGGGTGGGTAA; test: ITC; details: 100 mM KCl; 25 mM MOPS, 1 mM EDTA, pH 7.1, 25 °C; site 1 of 2; nB restricted to 2
[5] = test system: duplex-[(dAdT)12·(dAdT)12] (DNA, duplex) ATATATATATATATATATATATAT; test: UV/visible titration; details: 100 mM KCl; 25 mM MOPS, 1 mM EDTA, pH 7.1, 20 °C (text: 25 °C); 2 µM ligand; affinity printed as negligible
[6] = test system: duplex-[(dGdC)12·(dGdC)12] (DNA, duplex) GCGCGCGCGCGCGCGCGCGCGCGC; test: UV/visible titration; details: 100 mM KCl, 25 mM MOPS, 1 mM EDTA, pH 7.1, 20 °C (text: 25 °C), apparent, per site, MIS model
[7] = test system: 22AG (DNA, G4) AGGGTTAGGGTTAGGGTTAGGG; test: UV/visible titration; details: 100 mM KCl, 25 mM MOPS, 1 mM EDTA, pH 7.1, 20 °C (text: 25 °C), apparent, per site, MIS model
[8] = test system: c-myc (DNA, G4) TGAGGGTGGGTAGGGTGGGTAA; test: UV/visible titration; details: 100 mM KCl, 25 mM MOPS, 1 mM EDTA, pH 7.1, 20 °C (text: 25 °C), apparent, per site, MIS model
[9] = test system: duplex-[(dAdT)12·(dAdT)12] (DNA, duplex) ATATATATATATATATATATATAT; test: fluorescence titration; details: 100 mM KCl; 25 mM MOPS, 1 mM EDTA, pH 7.1, 20 °C (text: 25 °C); 2 µM ligand; affinity printed as negligible
[10] = test system: duplex-[(dGdC)12·(dGdC)12] (DNA, duplex) GCGCGCGCGCGCGCGCGCGCGCGC; test: fluorescence titration; details: 100 mM KCl, 25 mM MOPS, 1 mM EDTA, pH 7.1, 20 °C (text: 25 °C), apparent, per site, MIS model
[11] = test system: 22AG (DNA, G4) AGGGTTAGGGTTAGGGTTAGGG; test: fluorescence titration; details: 100 mM KCl, 25 mM MOPS, 1 mM EDTA, pH 7.1, 20 °C (text: 25 °C), apparent, per site, MIS model
[12] = test system: c-myc (DNA, G4) TGAGGGTGGGTAGGGTGGGTAA; test: fluorescence titration; details: 100 mM KCl, 25 mM MOPS, 1 mM EDTA, pH 7.1, 20 °C (text: 25 °C), apparent, per site, MIS model

binding [1]: weak
K A [2]: 1.2×10^5 (<8×10^6) M^-1
K A [3]: 3.8×10^6 (<36×10^6) M^-1
K A [4]: 1.3×10^7 (>0.4×10^7) M^-1
binding [5]: weak
K b [6]: (2.6±0.9) × 10^6 M^-1
K b [7]: (8.4±2.2) × 10^6 M^-1
K b [8]: (23.8±7.3) × 10^6 M^-1
binding [9]: weak
K b [10]: (2.6±0.7) × 10^6 M^-1
K b [11]: (1.2±0.2) × 10^6 M^-1
K b [12]: (23.1±5.9) × 10^6 M^-1
Structure (SMILES): C[n+]1cccc(-c2cc3c4cc(-c5ccc[n+](C)c5)c5nc(C(F)(F)C(F)(F)C(F)(F)F)nc6c(-c7ccc[n+](C)c7)cc(c7cc(-c8ccc[n+](C)c8)c8nc(C(F)(F)C(F)(F)C(F)(F)F)nc2c8c37)c4c56)c1
